What was measured:
[1] = system: NIH3T3^MEN2A(C634R) cells; test: Reversion of transformed morphologic phenotype of NIH3T3 MEN2A(C634R) transfectants; type: cell-based, murine; details: 6 μM, 24 h, phase-contrast microscope
Experimental: FIG. 1. Effects of Cpd 1 on NIH3T3^MEN2A(C634R) transfectants expressing exogenous RET/MEN2A(C634R). […] Cells were exposed to 6 μM Cpd1 for 24 h and then photographed under a phase-contrast microscope (original magnification ×100). B) Antiproliferative effect. NIH3T3^MEN2A(C634R) cells and the parental NIH3T3 cells were treated with increasing concentrations of the drug for 72 h and then counted with a Coulter Counter. […] C) Inhibition of Ret/MEN2A(C634R) autophosphorylation and expression. Cells were treated with solvent (−) or 10 μM Cpd1 (+), for the indicated times. Whole cell-lysates were prepared and subjected to SDS-PAGE and Western blotting with anti-pTyr antibody. After stripping, the filter was reblotted with anti-Ret antibody. Arrows indicate the partial and fully glycosilated forms of the Ret/MEN2A receptor.
(§1) The following human medullary thyroid carcinoma (MTC) cell lines were used in this study. The TT cell line derived from a MEN2A-associated MTC characterized by expression of the RET oncogene carrying the mutation C634W. The MZ-CRC-1 cell line derived from MEN2B-associated MTC characterized by expression of the RET oncogene carrying the mutation M918T. […]

[2] = system: TT medullary thyroid carcinoma xenografts; test: Antitumor activity in nude mice harboring TT xenografts; type: in vivo; details: for TWI (tumor weight inhibition): 10 consecutive days
Experimental: FIG. 3. Antitumor activity of Cpd 1 in nude mice harboring TT medullary thyroid carcinoma xenografts. Drug treatment started 25 days after s.c. inoculum of the tumor cells. Cpd 1 was delivered per os at 50 or 100 mg/Kg, twice in a day (2qd), for 10 consecutive days (indicated by arrows). Control mice received the vehicle. […] TWI were 60% (P<0.005) and 80% (P<0.0005) for the 50 mg/Kg and 100 mg/Kg doses, respectively.
All experiments were carried out using female athymic nude CD-1 mice, 8-11-weeks old (Charles River, Calco, Italy). Mice were maintained in laminar flow rooms with constant temperature and humidity. Experimental protocols were approved by the Ethic Committee for Animal Experimentation of the Istituto Nazionale per lo Studio e la Cura dei Tumori (Milan, Italy), according to the United Kingdom Coordinating Committee on Cancer Research Guidelines (Workman P. et al., British Journal of Cancer, 77, 1, 1998).
The MTC cells TT (1.6×10^7 cells) were s.c. inoculated in mice as a cell suspension from in vitro cell culture. Each control or drug-treated group included 8-10 tumors. Tumor cells were injected on day 0, and tumor growth was followed by biweekly measurements of tumor diameters with a Vernier caliper. Tumor weight (TW) was calculated according to the formula: TW (mg)=tumor volume (mm^3)=d^2xD/2, where d and D are the shortest and the longest diameter, respectively. Drug treatment started when tumors were just measurable (mean TW about 50 mg), 25 days after the inoculum of tumor cells. Cpd1 was dissolved in 5% ethanol, 5% Cremophor EL, 90% saline (0.9% NaCl) and delivered per os twice in a day (2qd) by a daily schedule for 10 days. Control mice received the solvent solution.
Drug efficacy was assessed as percentage TW inhibition (TWI % in drug-treated versus control mice expressed as: TWI %=100−(mean TW treated/mean TW control×100). For statistical analysis, TW in control and treated mice were compared on the day of TWI % evaluation, by Student's t test (two-tailed). P values less than 0.05 were considered statistically significant.

FGF-R3 mutant Y373C = target: T1, FGF-R3 mutant Y373C (Homo sapiens, UniProt P22607, Y373C); test: FGF-R3 (Y373C) autophosphorylation and expression in NIH3T3 transfectants; type: cell-based; details: 72 h
T1 construct: expressed in transfected cells; host or cells: NIH3T3 (mouse fibroblasts)
T1 sequence (P22607 23-806 Y373C): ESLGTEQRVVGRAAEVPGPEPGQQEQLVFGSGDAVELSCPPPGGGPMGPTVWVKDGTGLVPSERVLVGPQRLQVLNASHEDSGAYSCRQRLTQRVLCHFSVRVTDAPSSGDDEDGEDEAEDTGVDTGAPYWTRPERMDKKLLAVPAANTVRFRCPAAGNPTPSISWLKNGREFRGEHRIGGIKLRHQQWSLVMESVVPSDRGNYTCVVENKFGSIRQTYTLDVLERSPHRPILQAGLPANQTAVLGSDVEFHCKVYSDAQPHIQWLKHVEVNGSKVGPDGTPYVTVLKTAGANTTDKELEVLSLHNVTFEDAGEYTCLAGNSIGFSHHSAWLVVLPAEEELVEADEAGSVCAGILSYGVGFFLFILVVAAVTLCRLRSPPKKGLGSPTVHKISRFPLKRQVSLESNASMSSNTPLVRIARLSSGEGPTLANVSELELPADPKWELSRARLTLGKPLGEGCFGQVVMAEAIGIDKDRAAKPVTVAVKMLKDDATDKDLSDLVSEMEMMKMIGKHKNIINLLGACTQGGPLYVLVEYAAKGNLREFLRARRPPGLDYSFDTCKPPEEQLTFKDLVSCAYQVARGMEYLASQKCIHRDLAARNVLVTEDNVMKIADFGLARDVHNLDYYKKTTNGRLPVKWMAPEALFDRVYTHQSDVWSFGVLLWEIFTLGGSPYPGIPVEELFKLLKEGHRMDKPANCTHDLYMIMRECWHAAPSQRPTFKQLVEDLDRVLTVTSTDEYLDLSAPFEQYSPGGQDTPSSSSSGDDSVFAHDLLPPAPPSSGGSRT
Experimental: FIG. 6. Inhibition of autophosphorylation and expression of FGF-R1 and FGF-R3 receptors in whole cells by Cpd1. A): Swiss3T3 cells were serum starved for 24 h and then treated with Cpd1 at the indicated concentrations, for 18 h. After stimulation with 100 ng/ml FGF for 5 min, whole cell lysates were prepared and subjected to Western blotting with anti-pTyr or anti-FGF-R1. Protein loading by anti-actin blot is shown. B): NIH3T3 transformed by the FGF-R3 mutant Y373C were treated with the indicated concentrations, for 72 h. Cell extracts were immunoprecipitated with anti-FGF-R3 and then subjected to Western blotting with anti p-Tyr or anti-FGF-R3.
as §1
For immunoprecipitation experiments, cells were treated with Cpd1 or solvent for the indicated times. […] Protein concentration was determined by the BCA reagent (Pierce). […]

## COc1cc2c(cc1OC)/C(=C\c1ccc(O)cc1)C(=O)N2 [Cpd 1, (E)-1,3-dihydro-5,6-dimethoxy-3-[(4-hydroxyphenyl)methylene]-2H-indol-2-one]
[1]
  Transformed morphologic phenotype: Reversion of the transformed morphologic phenotype
[2]; 50 mg/Kg per os, 2qd, P<0.005
  TWI (tumor weight inhibition): 60%
[2]; 100 mg/Kg per os, 2qd, P<0.0005
  TWI (tumor weight inhibition): 80%
[2]; 50 or 100 mg/Kg per os, 2qd, 10 days
  Tumor growth: significant dose-dependent inhibition
[2]; oral, daily dose of 50-100 mg/Kg (twice a day)
  Tumor weight inhibition (TWI) reached: 80%
[2]; oral, daily dose of 50-100 mg/Kg (twice a day), nude mice
  Toxicity: without inducing toxicity
FGF-R3 mutant Y373C
  FGF-R3 (Y373C) expression: dose-dependent inhibition
  FGF-R3 (Y373C) tyrosine phosphorylation: dose-dependent inhibition

Source: patent US20090130229A1, “Antitumor uses of compound” (Cell Therapeutics, Inc., priority 2002, published 2009)
